The results in this text go back to US20160207906A1, “NOVEL 2,6-DIAMINOPYRIMIDINE DERIVATIVE” (CARNA BIOSCIENCES, INC., priority 2013, published 2016).

“Also recorded” adds a separate entry of the source.

For the first experiment, the system named is anti-IgM antibody BCR stimulation-induced intracellular calcium influx in Ramos cells. The experiment in a line: Inhibition test on the change of Ramos intracellular calcium ion. It is filed as cell-based. As to conditions: Fluo-8NW, anti-IgM antibody 2.0 μg/mL. On the procedure: The intracellular BTK inhibition by the compounds of the present invention was verified by measuring the effects of the compounds of the present invention on “anti-IgM antibody BCR stimulation-induced intracellular calcium influx”.
One day before measurement, the Ramos cells were cultured as being suspended again at a cell density of 1.0×10^6 cells/mL in a fresh growth medium (growth medium as used in Test Example 2), and the cells were recovered next day by centrifugation and washed with RPMI-1640 medium supplemented with 5% penicillin-streptomycin (Nacalai Tesque, Inc.) (Medium 1). These cells were suspended again at a cell density of 2.0×10^6 cells/mL in RPMI-1640 medium supplemented with 1% Ultra Low IgG FBS (GIBCO, #16250) and 5% penicillin-streptomycin (Nacalai Tesque, Inc.) (Medium 2), and thereafter each 100 μL of the cell suspension was added to each well of a Poly Lysine-coated microplate (BD BioCoat™, #356692), centrifuged (700 rpm, 3 minutes) and then incubated for 1 hour in a 5% CO2 incubator at 37° C. […]
The Ramos intracellular calcium ion concentration was measured as a fluorescent intensity of the calcium indicator Fluo-8NW using a microplate reader (SynergyH1) (Ex/Em=490/525 nm). […]
In general terms: Calcium assays in cells follow changes in intracellular calcium, usually with a dye or a luminescent sensor.
On to `Nc1cc(-c2cccc(-n3ccc4cc(C5CC5)cc(F)c4c3=O)c2CO)nc(Nc2ccc(N3CCOCC3)cc2)n1` [Example 1, 2-(3-{6-Amino-2-[(4-morpholinophenyl)amino]pyrimidin-4-yl}-2-(hydroxymethyl)phenyl)-6-cyclopropyl-8-fluoroisoquinolin-1 (2H)-one], for which the “inhibition of anti-IgM antibody BCR stimulation-induced intracellular calcium ion variation (FIG. 1)” value was “in a concentration-dependent manner from a low concentration; also recorded: inhibit the flux of calcium into the cells”.
For `Cn1cc(Nc2nc(N)cc(-c3cccc(-n4ccc5cc(C6CC6)cc(F)c5c4=O)c3CO)n2)cn1` [Example 2, 2-(3-{6-Amino-2-[ (1-methyl-1H-pyrazol-4-yl)amino]pyrimidin-4-yl}-2-(hydroxymethyl)phenyl)-6-cyclopropyl-8-fluoroisoquinolin-1 (2H)-one], the “inhibition of anti-IgM antibody BCR stimulation-induced intracellular calcium ion variation (FIG. 1)” value is recorded as “in a concentration-dependent manner from a low concentration; also recorded: inhibit the flux of calcium into the cells”.

The target in the next experiment is T1, Dephosphorylated BTK (Homo sapiens, UniProt Q06187).
T1 construct: purchased Carna Biosciences, Inc
T1 sequence (Q06187 whole entry): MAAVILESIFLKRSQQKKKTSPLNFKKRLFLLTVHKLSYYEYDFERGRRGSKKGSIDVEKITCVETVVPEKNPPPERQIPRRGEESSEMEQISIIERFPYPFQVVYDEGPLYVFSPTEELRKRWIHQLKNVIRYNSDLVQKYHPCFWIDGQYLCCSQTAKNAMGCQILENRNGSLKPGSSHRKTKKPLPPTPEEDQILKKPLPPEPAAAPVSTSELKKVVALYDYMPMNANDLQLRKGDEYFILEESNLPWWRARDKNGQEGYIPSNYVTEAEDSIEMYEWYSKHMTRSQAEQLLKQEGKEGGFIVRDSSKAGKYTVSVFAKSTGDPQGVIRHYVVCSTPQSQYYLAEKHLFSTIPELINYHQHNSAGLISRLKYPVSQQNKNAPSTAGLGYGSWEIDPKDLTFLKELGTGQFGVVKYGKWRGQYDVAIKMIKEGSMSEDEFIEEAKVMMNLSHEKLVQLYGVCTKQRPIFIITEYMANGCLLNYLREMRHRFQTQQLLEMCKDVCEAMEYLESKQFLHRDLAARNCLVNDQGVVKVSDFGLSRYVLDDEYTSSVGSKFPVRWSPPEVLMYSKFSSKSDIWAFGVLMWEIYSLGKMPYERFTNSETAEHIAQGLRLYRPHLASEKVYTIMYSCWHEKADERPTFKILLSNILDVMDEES
Nature of the experiment: BTK activity inhibition test (mobility shift assay, dephosphorylated BTK). It is filed as biochemical. Conditions: 200 μM ATP in substrate mixture, 1 hour at room temperature. On the procedure:
Dephosphorylated BTK was obtained by adding A protein phosphatase (manufactured by New England BioLabs Inc., Code No. P0753S) and MnCl2 at 10 U/μg and 2 mM, respectively to biotinylated BTK protein BTN-BTK (manufactured by Carna Biosciences, Inc.) enzyme solution, reacting the mixture at 4° C. overnight, and removing of A protein phosphatase by anti DYKDDDDK-tag antibody agarose gel chromatography, followed by buffer exchange using a 10DG Desalting Column.
The kinase activity was measured using QuickScout Screening Assist (trade mark) MSA (commercially available kit manufactured by Carna Biosciences, Inc.) by mobility shift assay (MSA) method. The substrate of the kinase reaction was an FITC-labeled SRCtide peptide included in the kit. An assay buffer [20 mM HEPES, 0.01% Triton X-100 (Trade mark), 2 mM dithiothreitol, pH7.5] was used and adjusted at 4 μM substrate, 20 mM MgCl2 and 200 μM ATP to obtain a substrate mixture solution. The enzyme solution was also prepared by diluting the dephosphorylated BTK to 0.6 nM using the assay buffer. The 10 mM solution of the test compound in DMSO was further diluted with DMSO to 10 levels of the concentration (0.00003 mM, 0.0001 mM, 0.0003 mM, 0.001 mM, 0.003 mM, 0.01 mM, 0.03 mM, 0.1 mM, 0.3 mM, 1 mM), each of which was subjected to a 25-fold dilution with the assay buffer to obtain the drug solutions (4% DMSO solutions), 5 μL of the drug solution or a control solution (4% DMSO-assay buffer), 5 μL of the substrate mixture solution, and 10 μL of the enzyme solution were mixed in the wells of a polypropylene 384-well plate and allowed to react at room temperature for 1 hour, and then quenched by adding 60 μL of the termination buffer included in the kit. Subsequently, the quantities of the substrates (S) and the phosphorylated substrate (P) in the reaction solution were measured using LabChip EZ Reader II system (manufactured by Caliper Life Sciences) according to the protocol of the assay kit.
The heights of the peaks of the isolated substrate and the phosphorylated substrate were represented as S and P, respectively, and a blank which contained the assay buffer instead of the enzyme solution was also measured.
The inhibition rate (%) of the test compound was calculated according to the following equation.
Inhibition rate (%)=(1−(C−A)/(B−A))×100
wherein, A, B and C represent P/(P+S) of the blank well, P/(P+S) of the control well and P/(P+S) of the compound-containing well, respectively.
The IC50 value was calculated via a regression analysis of the inhibition rate (%) and the test compound concentration (logarithmic value).
One may read the IC50 as the point on the concentration scale where inhibition reaches its midpoint. Turning to `Nc1cc(-c2cccc(-n3ccc4cc(C5CC5)cc(F)c4c3=O)c2CO)nc(Nc2ccc(N3CCOCC3)cc2)n1` [Example 1, 2-(3-{6-Amino-2-[(4-morpholinophenyl)amino]pyrimidin-4-yl}-2-(hydroxymethyl)phenyl)-6-cyclopropyl-8-fluoroisoquinolin-1 (2H)-one], the IC50 stood at 2.1 nM.
Still for that read-out and setting: the same measure for `Cn1cc(Nc2nc(N)cc(-c3cccc(-n4ccc5cc(C6CC6)cc(F)c5c4=O)c3CO)n2)cn1` [Example 2, 2-(3-{6-Amino-2-[ (1-methyl-1H-pyrazol-4-yl)amino]pyrimidin-4-yl}-2-(hydroxymethyl)phenyl)-6-cyclopropyl-8-fluoroisoquinolin-1 (2H)-one]: 6.4 nM; for `Cn1cc(Nc2nc(N)cc(-c3cccc(-n4ccc5cc(C6CC6)cc(F)c5c4=O)c3CO)n2)cc1C#N` [Example 5, 4-({4-Amino-6-[3-(6-cyclo-propyl-8-fluoro-1-oxoiso-quinolin-2(1H)-yl)-2-(hydroxymethyl)phenyl]pyrimidin-2-yl}amino)-1-methyl-1H-pyrrole-2-carbonitrile]: 1.7 nM.
On the same count and under the same terms, with `Cn1cc(Nc2nc(N)cc(-c3cccc(-n4ccc5cc(C(C)(C)C)cc(F)c5c4=O)c3CO)n2)cn1` [Example 7, 2-(3-{6-Amino-2-[(1-methyl-1H-pyrazol-4-yl)amino]pyrimidin-4-yl}-2-(hydroxymethyl)phenyl)-6-(tert-butyl)-8-fluoro-isoquinolin-1(2H)-one] the figure was 0.3 nM; with `Nc1cc(-c2cccc(-n3ccc4cc(C5CC5)cc(F)c4c3=O)c2CO)nc(Nc2cnn(CC3CC3)c2)n1` [Example 8, 2-[3-(6-Amino-2-{[1-(cyclopropylmethyl)-1H-pyrazol-4-yl]amino}pyrimidin-4-yl)-2-(hydroxymethyl)phenyl]-6-cyclopropyl-8-fluoroisoquinolin-1(2H)-one], 0.3 nM; with `Nc1cc(-c2cccc(-n3ccc4cc(C5CC5)cc(F)c4c3=O)c2CO)nc(Nc2cnn(C3CC3)c2)n1` [Example 9, 2-(3-{6-Amino-2-[(1-cyclopropyl-1H-pyrazol-4-yl)amino]pyrimidin-4-yl}-2-(hydroxymethyl)phenyl)-6-cyclopropyl-8-fluoroisoquinolin-1(2H)-one], 0.3 nM.
For the compound `N#Cc1cc(Nc2nc(N)cc(-c3cccc(-n4ccc5cc(C6CC6)cc(F)c5c4=O)c3CO)n2)cn1C1CC1` [Example 10, 4-({4-Amino-6-[3-(6-cyclo-propyl-8-fluoro-1-oxoiso-quinolin-2(1H)-yl)-2-(hydroxymethyl)phenyl]pyrimidin-2-yl}amino)-1-cyclopropyl-1H-pyrrole-2-carbonitrile], the IC50 was determined as 2.1 nM.
For the compound `CN1CCN(c2ccc(Nc3nc(N)cc(-c4cccc(-n5ccc6cc(C7CC7)cc(F)c6c5=O)c4CO)n3)cc2)CC1` [Example 15, 2-[3-(6-Amino-2-{[4-(4-methylpiperazin-1-yl)phenyl]amino}pyrimidin-4-yl)-2-(hydroxymethyl)phenyl]-6-cyclopropyl-8-fluoroisoquinolin-1(2H)-one], the IC50 is 0.4 nM.
As for `CC(=O)c1cc(Nc2nc(N)cc(-c3cccc(-n4ccc5cc(C6CC6)cc(F)c5c4=O)c3CO)n2)cn1C` [Example 17, 2-(3-{2-[(5-Acetyl-1-methyl-1H-pyrrol-3-yl)amino]-6-aminopyrimidin-4-yl}-2-(hydroxymethyl)phenyl)-6-cyclopropyl-8-fluoroiso-quinolin-1(2H)-one], the concentration for half-maximal inhibition (IC50) was 0.8 nM.
As for `Nc1cc(-c2cccc(-n3ccc4cc(C5CC5)cc(F)c4c3=O)c2CO)nc(Nc2cn[nH]c2)n1` [Example 18, 2-(3-{2-[(1H-Pyrazol-4-yl)amino]-6-aminopyrimidin-4-yl}-2-(hydroxymethyl)phenyl)-6-cyclopropyl-8-fluoroiso-quinolin-1(2H)-one], the IC50 was found to be 0.6 nM.
Turning to `Cn1cc(Nc2nc(N)cc(-c3cccc(-n4ncc5cc(C6CC6)cc(F)c5c4=O)c3CO)n2)cn1` [Example 20, 2-(3-{6-Amino-2-[(1-methyl-1H-pyrazol-4-yl)amino]pyrimidin-4-yl}-2-(hydroxy-methyl)phenyl)-6-cyclopropyl-8-fluorophthalazin-1(2H)-one], the IC50 worked out at 0.6 nM.
On to `Nc1cc(-c2cccc(-n3ncc4cc(C5CC5)cc(F)c4c3=O)c2CO)nc(Nc2cnn(C3CC3)c2)n1` [Example 21, 2-(3-{6-Amino-2-[(1-cyclo-propyl-1H-pyrazol-4-yl)amino]pyrimidin-4-yl}-2-(hydroxymethyl)phenyl)-6-cyclopropyl-8-fluoro-phthalazin-1(2H)-one], for which the IC50 stood at 0.4 nM.
Take `Cn1cc(Nc2nc(N)cc(-c3ccnc(-n4ccc5cc(C6CC6)cc(F)c5c4=O)c3CO)n2)cn1` [Example 22, 2-(4-{6-Amino-2-[(1-methyl-1H-pyrazol-4-yl)amino]pyrimidin-4-yl}-3-(hydroxy-methyl)pyridin-2-yl)-6-cyclo-propyl-8-fluoroisoquinolin-1(2H)-one]: the IC50 worked out at 0.8 nM.
On the same count and under the same terms, with `Cn1cc(Nc2nc(N)cc(-c3cccc(-n4ncc5cc(C6CC6)cc(F)c5c4=O)c3CO)n2)cc1C#N` [Example 24, 4-({4-Amino-6-[3-(6-cyclo-propyl-8-fluoro-1-oxo-phthalazin-2(1H)-yl)-2-(hydroxymethyl)phenyl]pyrimidin-2-yl}amino)-1-methyl-1H-pyrrole-2-carbonitrile] the figure was 0.4 nM.
In the case of `Cn1cc(Nc2nc(N)cc(-c3cccc(-n4ccc5cc(C6(C)CC6)cc(F)c5c4=O)c3CO)n2)cn1` [Example 25, 2-(3-{6-Amino-2-[(1-methyl-1H-pyrazol-4-yl)amino]pyrimidin-4-yl}-2-(hydroxy-methyl)phenyl)-8-fluoro-6-(1-methylcyclopropyl) isoquinolin-1(2H)-one], the IC50 turned out to be 0.2 nM.
